From PubChem BioAssay AID504669 (Sanford-Burnham Center for Chemical Genomics, 2011)

Target: Breast cancer type 1 susceptibility protein (Homo sapiens) + BRCA1-associated RING domain protein 1 (Homo sapiens) (UniProt P38398+Q99728)
Assay: inhibition of Brca1/Bard1 split-luciferase complementation, dose response, counter-screen for Mdm2/MdmX interaction inhibitor project, cell-based, luminescence (AID 504669)
Conditions: SaOS-2 Brca1/Bard1 split-luciferase complementation

Chain of Breast cancer type 1 susceptibility protein (Homo sapiens) + BRCA1-associated RING domain protein 1 (Homo sapiens) (P38398 whole entry, looked up, the tested form may be a part): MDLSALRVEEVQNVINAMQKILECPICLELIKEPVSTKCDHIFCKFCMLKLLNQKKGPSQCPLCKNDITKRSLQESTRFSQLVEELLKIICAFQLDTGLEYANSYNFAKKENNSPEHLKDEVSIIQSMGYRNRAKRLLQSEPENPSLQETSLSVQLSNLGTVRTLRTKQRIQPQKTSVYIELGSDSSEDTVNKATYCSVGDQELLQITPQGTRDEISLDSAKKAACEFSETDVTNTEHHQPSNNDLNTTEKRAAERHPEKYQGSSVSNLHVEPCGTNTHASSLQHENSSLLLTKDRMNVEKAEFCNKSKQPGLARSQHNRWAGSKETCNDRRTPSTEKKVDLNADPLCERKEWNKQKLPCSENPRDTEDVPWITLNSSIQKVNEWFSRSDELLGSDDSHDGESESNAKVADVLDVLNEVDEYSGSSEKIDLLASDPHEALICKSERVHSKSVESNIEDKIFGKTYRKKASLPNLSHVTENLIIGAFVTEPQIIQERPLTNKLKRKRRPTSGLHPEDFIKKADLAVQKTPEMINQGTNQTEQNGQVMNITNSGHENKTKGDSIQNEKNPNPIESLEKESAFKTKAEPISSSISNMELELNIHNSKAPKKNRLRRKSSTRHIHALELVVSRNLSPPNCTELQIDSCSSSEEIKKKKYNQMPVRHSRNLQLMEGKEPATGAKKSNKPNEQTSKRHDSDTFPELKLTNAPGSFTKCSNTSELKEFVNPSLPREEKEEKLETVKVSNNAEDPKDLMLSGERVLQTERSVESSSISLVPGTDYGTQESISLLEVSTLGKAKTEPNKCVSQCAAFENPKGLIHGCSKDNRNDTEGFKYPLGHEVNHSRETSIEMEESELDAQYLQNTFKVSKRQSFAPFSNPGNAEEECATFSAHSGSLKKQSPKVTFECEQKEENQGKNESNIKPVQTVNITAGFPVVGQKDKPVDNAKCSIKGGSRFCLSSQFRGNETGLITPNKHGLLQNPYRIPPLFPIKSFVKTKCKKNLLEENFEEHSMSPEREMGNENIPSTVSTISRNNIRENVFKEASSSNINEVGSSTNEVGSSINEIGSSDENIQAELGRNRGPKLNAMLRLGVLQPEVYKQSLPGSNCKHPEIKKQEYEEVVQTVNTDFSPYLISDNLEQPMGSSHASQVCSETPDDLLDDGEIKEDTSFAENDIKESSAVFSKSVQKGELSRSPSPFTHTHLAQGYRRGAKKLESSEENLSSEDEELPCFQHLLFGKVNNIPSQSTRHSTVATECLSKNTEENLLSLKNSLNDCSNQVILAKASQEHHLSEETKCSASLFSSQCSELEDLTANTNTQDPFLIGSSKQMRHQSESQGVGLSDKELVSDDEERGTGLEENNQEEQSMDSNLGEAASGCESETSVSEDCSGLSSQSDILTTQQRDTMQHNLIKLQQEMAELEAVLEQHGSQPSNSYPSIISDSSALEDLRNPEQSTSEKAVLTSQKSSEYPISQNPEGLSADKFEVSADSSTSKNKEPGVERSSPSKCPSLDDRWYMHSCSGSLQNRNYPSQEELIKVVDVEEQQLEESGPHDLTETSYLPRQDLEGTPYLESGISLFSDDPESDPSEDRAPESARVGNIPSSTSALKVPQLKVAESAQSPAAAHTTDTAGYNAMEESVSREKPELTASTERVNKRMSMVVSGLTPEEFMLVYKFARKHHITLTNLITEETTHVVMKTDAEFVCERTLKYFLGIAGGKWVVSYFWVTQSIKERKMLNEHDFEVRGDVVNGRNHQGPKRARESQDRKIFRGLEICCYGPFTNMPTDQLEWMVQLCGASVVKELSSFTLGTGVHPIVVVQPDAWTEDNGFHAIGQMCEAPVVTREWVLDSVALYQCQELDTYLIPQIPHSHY
Chain of Breast cancer type 1 susceptibility protein (Homo sapiens) + BRCA1-associated RING domain protein 1 (Homo sapiens) (Q99728 whole entry, looked up, the tested form may be a part): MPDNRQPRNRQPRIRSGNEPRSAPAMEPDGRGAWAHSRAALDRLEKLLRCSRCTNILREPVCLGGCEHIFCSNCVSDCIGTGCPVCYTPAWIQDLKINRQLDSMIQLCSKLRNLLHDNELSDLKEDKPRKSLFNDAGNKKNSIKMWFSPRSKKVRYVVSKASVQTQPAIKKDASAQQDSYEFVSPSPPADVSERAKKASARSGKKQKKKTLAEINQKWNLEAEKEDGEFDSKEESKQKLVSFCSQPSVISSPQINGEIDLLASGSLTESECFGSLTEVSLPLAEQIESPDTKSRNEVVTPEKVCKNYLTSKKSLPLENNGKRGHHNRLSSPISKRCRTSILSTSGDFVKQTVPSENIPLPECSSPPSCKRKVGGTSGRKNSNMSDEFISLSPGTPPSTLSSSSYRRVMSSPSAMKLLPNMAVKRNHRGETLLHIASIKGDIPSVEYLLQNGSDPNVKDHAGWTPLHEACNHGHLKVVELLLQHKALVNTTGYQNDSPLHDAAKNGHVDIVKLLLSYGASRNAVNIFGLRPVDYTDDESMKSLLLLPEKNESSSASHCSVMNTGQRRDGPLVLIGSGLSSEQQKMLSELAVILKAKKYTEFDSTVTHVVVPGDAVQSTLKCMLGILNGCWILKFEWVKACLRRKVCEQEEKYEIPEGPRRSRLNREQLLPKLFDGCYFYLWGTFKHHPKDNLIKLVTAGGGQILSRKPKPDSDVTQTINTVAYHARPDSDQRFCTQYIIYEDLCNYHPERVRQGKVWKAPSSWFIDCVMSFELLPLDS

| SMILES | IC50 |
| --- | --- |
| COCCn1c(C)cc(C2=NNC(=Nc3ccccc3F)SC2)c1C | 0.493 µM |
| CCOC(=O)c1ccc(Nc2nc(N)c3cc(OC)c(OC)cc3n2)cc1 | 14.3 µM |
| C/C(=N\Nc1cc(C)nc(-c2ccccc2O)n1)c1ccccc1O | 5.35 µM |
| COc1ccc2c(c1)C1(Nc3ccccc3-c3nc4ccccc4n31)C(=O)N2C (stereo not given) | 1.18 µM |
| CCN1C/C(=C/c2ccc(OC)c(O)c2)C(=O)/C(=C/c2ccc(OC)c(O)c2)C1 | 9.78 µM |
| Cc1cccn2c(=O)c3cc(C(=O)NCCc4ccccc4)c(=N)n(Cc4ccco4)c3nc12 | 4.13 µM |
| CC1(C)C(=O)Nc2ccccc2N1C(=O)Cn1ncc(Cl)c(Cl)c1=O | 8.39 µM |
| O=C(CN1CCCc2ccccc21)N/N=C/c1c(O)ccc2ccccc12 | 1.97 µM |
| CC(C)c1cccc(O)c(=O)c1 | 3.89 µM |
| COc1cc(-c2nc(-c3ccc(NC(=O)c4ccc5c(c4)OCO5)cc3)no2)cc(OC)c1OC | 13.4 µM |
| CCOC(=O)/C=C/C(=O)OCC(=O)NC(c1ccccc1)c1ccccc1 | 3.9 µM |
| O=[N+]([O-])c1ccccc1S(=O)(=O)Nc1cccc2cccnc12 | 4.37 µM |
| Cn1nc([N+](=O)[O-])nc1Sc1nnc(-c2ccccc2)o1 | 12.3 µM |
| CCN(CC)S(=O)(=O)c1ccc(NC(=O)c2cccnc2Cl)c(NC(=O)c2cccnc2Cl)c1 | 10.1 µM |
| Cc1nc(NC2=NCN(CCCN3CCOCC3)CN2)nc2c(C)cccc12 | 5.59 µM |
| CC(=O)c1ccc(-c2ccc(C(=O)Nc3nc(-c4ccccn4)cs3)o2)cc1 | 4.85 µM |
| COc1ccc(-c2cc3c(=O)n(CC(=O)NCCCN4CCC(N5CCCCC5)CC4)nc(C)n3n2)cc1 | 10.6 µM |
| CCOc1cc(N2CCOCC2)c(OCC)cc1NC(=O)COc1cccc2cccnc12 | 5.07 µM |
| O=C(/C=C/c1c(F)cccc1Cl)c1ccc(O)cc1 | 6.64 µM |
| O=c1oc2ccccc2cc1-c1cn(-c2ccccc2)c(=S)[nH]1 | 0.00353 µM |
